# Reference: patent US20260015358A1, “BICYCLIC DERIVATIVES, COMPOSITIONS AND USES THEREOF” (Danatlas Pharmaceuticals Co., Ltd., priority 2023, published 2026)
# Experiments:
# [1] = target: T1, WRN [UniPro: Q14191 (WRN_HUMAN), N500-C946] (Homo sapiens (Human), UniProt Q14191); experiment: WRN unwinding assay (FORKF DNA, fluorescence); assay type: biochemical; details: Table 14
# [2] = target: T1, WRN [UniPro: Q14191 (WRN_HUMAN), N500-C946]; experiment: WRN ATPase assay (ADP-Glo); assay type: biochemical; details: WRN enzymatic activity assay
# T1 sequence (Q14191 500-946): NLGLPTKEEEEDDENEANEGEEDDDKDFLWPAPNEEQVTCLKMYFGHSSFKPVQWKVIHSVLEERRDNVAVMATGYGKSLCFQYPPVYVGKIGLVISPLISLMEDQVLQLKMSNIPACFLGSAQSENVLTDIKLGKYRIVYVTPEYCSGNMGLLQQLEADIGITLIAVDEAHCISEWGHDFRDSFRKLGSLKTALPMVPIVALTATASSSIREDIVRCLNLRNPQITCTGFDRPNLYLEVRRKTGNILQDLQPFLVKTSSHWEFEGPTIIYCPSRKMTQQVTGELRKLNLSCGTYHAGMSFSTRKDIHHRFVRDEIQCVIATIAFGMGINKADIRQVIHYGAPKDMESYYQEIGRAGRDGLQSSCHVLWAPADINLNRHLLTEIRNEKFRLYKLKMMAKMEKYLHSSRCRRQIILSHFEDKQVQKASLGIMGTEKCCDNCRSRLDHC
SMILES,IC50 [1],IC50 [2]
"CCc1c(N2CCN(C(=O)c3cccc(C)c3O)CC2)c(=O)n2nc(C3=CCOCC3)nc2n1CC(=O)Nc1ccc(C(F)(F)F)cc1Cl [Example 60, N-(2-Chloro-4-(trifluoromethyl)phenyl)-2-(2-(3,6-dihydro-2H-pyran-4-yl)-5-ethyl-6-(4-(2-hydroxy-3-methylbenzoyl)piperazin-1-yl)-7-oxo-[1,2,4]triazolo[1,5-a]pyrimidin-4(7H)-yl)acetamide]",100 to 1000 nM,100 to 1000 nM
"CCc1c(N2CCN(C(=O)CNC(=O)c3nc(C)cs3)CC2)c(=O)n2nc(C3=CCOCC3)nc2n1CC(=O)Nc1ccc(C(F)(F)F)cc1Cl [Example 346, N-(2-(4-(4-(2-((2-Chloro-4-(trifluoromethyl)phenyl)amino)-2-oxoethyl)-2-(3,6-dihydro-2H-pyran-4-yl)-5-ethyl-7-oxo-4,7-dihydro-[1,2,4]triazolo[1,5-a]pyrimidin-6-yl)piperazin-1-yl)-2-oxoethyl)-4-methylthiazole-2-carboxamide]",< 100 nM,< 100 nM
"CCc1c(N2CCN(C(=O)c3cnc4ccsc4c3O)CC2)c(=O)n2nc(C3=CCOCC3)nc2n1CC(=O)Nc1ccc(C(F)(F)F)cc1Cl [Example 45, N-(2-Chloro-4-(trifluoromethyl)phenyl)-2-(2-(3,6-dihydro-2H-pyran-4-yl)-5-ethyl-6-(4-(7-hydroxythieno[3,2-b]pyridine-6-carbonyl)piperazin-1-yl)-7-oxo-[1,2,4]triazolo[1,5-a]pyrimidin-4(7H)-yl)acetamide]",< 100 nM,< 100 nM
"CCc1c(N2CCN(C(=O)c3c[nH][nH]c3=O)CC2)c(=O)n2nc(C3=CCOCC3)nc2n1CC(=O)Nc1ccc(C(F)(F)F)cc1Cl [Example 63, N-(2-Chloro-4-(trifluoromethyl)phenyl)-2-(2-(3,6-dihydro-2H-pyran-4-yl)-5-ethyl-7-oxo-6-(4-(3-oxo-2,3-dihydro-1H-pyrazole-4-carbonyl)piperazin-1-yl)-[1,2,4]triazolo[1,5-a]pyrimidin-4(7H)-yl)acetamide]",< 100 nM,< 100 nM
"CCc1c(N2CCN(C(=O)CNC(=O)CC3CCCO3)CC2)c(=O)n2nc(C3=CCOCC3)nc2n1CC(=O)Nc1ccc(C(F)(F)F)cc1Cl (centres unmarked) [Example 338, N-(2-Chloro-4-(trifluoromethyl)phenyl)-2-(2-(3,6-dihydro-2H-pyran-4-yl)-5-ethyl-7-oxo-6-(4-((2-(tetrahydrofuran-2-yl)acetyl)glycyl)piperazin-1-yl)-[1,2,4]triazolo[1,5-a]pyrimidin-4(7H)-yl)acetamide]",< 100 nM,< 100 nM
"CCc1c(N2CCN(C(=O)c3ncsc3N)CC2)c(=O)n2nc(C3=CCOCC3)nc2n1CC(=O)Nc1ccc(C(F)(F)F)cc1Cl [Example 32, 2-(6-(4-(5-Aminothiazole-4-carbonyl)piperazin-1-yl)-2-(3,6-dihydro-2H-pyran-4-yl)-5-ethyl-7-oxo-[1,2,4]triazolo[1,5-a]pyrimidin-4(7H)-yl)-N-(2-chloro-4-(trifluoromethyl)phenyl)acetamide]",< 100 nM,100 to 1000 nM
"CCc1c(N2CCN(C(=O)CNC(=O)c3ccon3)CC2)c(=O)n2nc(C3=CCOCC3)nc2n1CC(=O)Nc1ccc(C(F)(F)F)cc1F [Example 221, N-(2-(4-(2-(3,6-Dihydro-2H-pyran-4-yl)-5-ethyl-4-(2-((2-fluoro-4-(trifluoromethyl)phenyl)amino)-2-oxoethyl)-7-oxo-4,7-dihydro-[1,2,4]triazolo[1,5-a]pyrimidin-6-yl)piperazin-1-yl)-2-oxoethyl)isoxazole-3-carboxamide]",< 100 nM,< 100 nM
"CCc1c(N2CCN(C(=O)CNC(=O)c3nc(C)ncc3O)CC2)c(=O)n2nc(C3=CCOCC3)nc2n1CC(=O)Nc1ccc(C(F)(F)F)cc1Cl [Example 368, N-(2-(4-(4-(2-((2-Chloro-4-(trifluoromethyl)phenyl)amino)-2-oxoethyl)-2-(3,6-dihydro-2H-pyran-4-yl)-5-ethyl-7-oxo-4,7-dihydro-[1,2,4]triazolo[1,5-a]pyrimidin-6-yl)piperazin-1-yl)-2-oxoethyl)-5-hydroxy-2-methylpyrimidine-4-carboxamide]",< 100 nM,< 100 nM
"CCc1c(N2CCN(C(=O)c3cc4cnccc4[nH]3)CC2)c(=O)n2nc(C3=CCOCC3)nc2n1CC(=O)Nc1ccc(C(F)(F)F)cc1Cl [Example 313, 2-(6-(4-(1H-Pyrrolo[3,2-c]pyridine-2-carbonyl)piperazin-1-yl)-2-(3,6-dihydro-2H-pyran-4-yl)-5-ethyl-7-oxo-[1,2,4]triazolo[1,5-a]pyrimidin-4(7H)-yl)-N-(2-chloro-4-(trifluoromethyl)phenyl)acetamide]",100 to 1000 nM,100 to 1000 nM
"CCC(=O)N(C(=O)Cn1c(CC)c(N2CCN(S(N)(=O)=O)CC2)c(=O)n2nc(C3=CCOCC3)nc12)c1ccc(C(F)(F)F)cc1Cl [Example 35, N-(2-Chloro-4-(trifluoromethyl)phenyl)-N-(2-(2-(3,6-dihydro-2H-pyran-4-yl)-5-ethyl-7-oxo-6-(4-sulfamoylpiperazin-1-yl)-[1,2,4]triazolo[1,5-a]pyrimidin-4(7H)-yl)acetyl)propionamide]",100 to 1000 nM,100 to 1000 nM
"CCc1c(N2CCN(C(=O)CNC(=O)c3cc(N(C)C)ccc3F)CC2)c(=O)n2nc(C3=CCOCC3)nc2n1CC(=O)Nc1ccc(C(F)(F)F)cc1Cl [Example 212, N-(2-(4-(4-(2-((2-Chloro-4-(trifluoromethyl)phenyl)amino)-2-oxoethyl)-2-(3,6-dihydro-2H-pyran-4-yl)-5-ethyl-7-oxo-4,7-dihydro-[1,2,4]triazolo[1,5-a]pyrimidin-6-yl)piperazin-1-yl)-2-oxoethyl)-5-(dimethylamino)-2-fluorobenzamide]",100 to 1000 nM,100 to 1000 nM
"CCc1c(N2CCN(C(=O)C(=O)NOC)CC2)c(=O)n2nc(C3=CCOCC3)nc2n1CC(=O)Nc1ccc(C(F)(F)F)cc1Cl [Example 330, 2-(4-(4-(2-((2-Chloro-4-(trifluoromethyl)phenyl)amino)-2-oxoethyl)-2-(3,6-dihydro-2H-pyran-4-yl)-5-ethyl-7-oxo-4,7-dihydro-[1,2,4]triazolo[1,5-a]pyrimidin-6-yl)piperazin-1-yl)-N-methoxy-2-oxoacetamide]",< 100 nM,< 100 nM
"CCc1c(N2CCN(C(=O)CNC(=O)Cc3ccccc3F)CC2)c(=O)n2nc(C3=CCOCC3)nc2n1CC(=O)Nc1ccc(C(F)(F)F)cc1Cl [Example 274, N-(2-Chloro-4-(trifluoromethyl)phenyl)-2-(2-(3,6-dihydro-2H-pyran-4-yl)-5-ethyl-6-(4-((2-(2-fluorophenyl)acetyl)glycyl)piperazin-1-yl)-7-oxo-[1,2,4]triazolo[1,5-a]pyrimidin-4(7H)-yl)acetamide]",< 100 nM,< 100 nM
"CCc1c(N2CCN(C(=O)CNC(=O)c3ccc(F)c(NC)c3)CC2)c(=O)n2nc(N3CCOCC3)nc2n1CC(=O)Nc1ccc(C(F)(F)F)cc1Cl [Example 251, N-(2-(4-(4-(2-((2-Chloro-4-(trifluoromethyl)phenyl)amino)-2-oxoethyl)-5-ethyl-2-morpholino-7-oxo-4,7-dihydro-[1,2,4]triazolo[1,5-a]pyrimidin-6-yl)piperazin-1-yl)-2-oxoethyl)-4-fluoro-3-(methylamino)benzamide]",< 100 nM,< 100 nM
"CCc1c(N2CCN(C(=O)CNC(=O)c3cncs3)CC2)c(=O)n2nc(C3=CCOCC3)nc2n1CC(=O)Nc1ccc(C(F)(F)F)cc1Cl [Example 268, N-(2-(4-(4-(2-((2-Chloro-4-(trifluoromethyl)phenyl)amino)-2-oxoethyl)-2-(3,6-dihydro-2H-pyran-4-yl)-5-ethyl-7-oxo-4,7-dihydro-[1,2,4]triazolo[1,5-a]pyrimidin-6-yl)piperazin-1-yl)-2-oxoethyl)thiazole-5-carboxamide]",< 100 nM,< 100 nM
"CCc1c(N2CCN(C(=O)CNC(=O)c3ccccc3)CC2)c(=O)n2nc(N3CCc4ncccc43)nc2n1CC(=O)Nc1ccc(C(F)(F)F)cc1Cl [Example 234, N-(2-(4-(4-(2-((2-Chloro-4-(trifluoromethyl)phenyl)amino)-2-oxoethyl)-2-(2,3-dihydro-1H-pyrrolo[3,2-b]pyridin-1-yl)-5-ethyl-7-oxo-4,7-dihydro-[1,2,4]triazolo[1,5-a]pyrimidin-6-yl)piperazin-1-yl)-2-oxoethyl)benzamide]",< 100 nM,100 to 1000 nM
"CCc1c(N2CCN(C(=O)c3ccc[nH]c3=O)CC2)c(=O)n2nc(C3=CCOCC3)nc2n1CC(=O)Nc1ccc(C(F)(F)F)cc1Cl [Example 65, N-(2-Chloro-4-(trifluoromethyl)phenyl)-2-(2-(3,6-dihydro-2H-pyran-4-yl)-5-ethyl-7-oxo-6-(4-(2-oxo-1,2-dihydropyridine-3-carbonyl)piperazin-1-yl)-[1,2,4]triazolo[1,5-a]pyrimidin-4(7H)-yl)acetamide]",100 to 1000 nM,100 to 1000 nM
"CCc1c(N2CCN(C(=O)CNC(=O)c3ccccc3F)CC2)c(=O)n2nc(SC)nc2n1CC(=O)Nc1ccc(C(F)(F)F)cc1Cl [Example 241, N-(2-(4-(4-(2-((2-Chloro-4-(trifluoromethyl)phenyl)amino)-2-oxoethyl)-5-ethyl-2-(methylthio)-7-oxo-4,7-dihydro-[1,2,4]triazolo[1,5-a]pyrimidin-6-yl)piperazin-1-yl)-2-oxoethyl)-2-fluorobenzamide]",100 to 1000 nM,100 to 1000 nM
"CCc1c(N2CCN(C(=O)CNC(=O)N(C)Cc3ccccc3)CC2)c(=O)n2nc(C3=CCOCC3)nc2n1CC(=O)Nc1ccc(C(F)(F)F)cc1Cl [Example 189, 2-(6-(4-((Benzyl(methyl)carbamoyl)glycyl)piperazin-1-yl)-2-(3,6-dihydro-2H-pyran-4-yl)-5-ethyl-7-oxo-[1,2,4]triazolo[1,5-a]pyrimidin-4(7H)-yl)-N-(2-chloro-4-(trifluoromethyl)phenyl)acetamide]",< 100 nM,< 100 nM
